The values below come from US11780893B2, “Kv1.3 blockers” (Zealand Pharma A/S, priority 2019, dated 2023).

In experiment [1] the target is T1, Kv1.3 (Homo sapiens, UniProt P22001).
T1 construct: expressed in transfected cells; host or cells: Chinese Hamster Ovary (CHO)
Put plainly: cell-based. Conditions: CHO cells, whole-cell patch clamp; read-out: Potency IC50 (nM) Kv1.3.

Experiment [2] has as its target T2, Kv1.6 (Homo sapiens, UniProt P17658).
T2 construct: expressed in transfected cells; host or cells: Chinese Hamster Ovary (CHO)
Put plainly: cell-based. Conditions: for IC50: CHO cells, whole-cell patch clamp, read-out: Potency IC50 (nM) Kv1.6; for Selectivity Kv1.6/Kv1.3: ratio IC50[Kv1.6]/IC50[Kv1.3].

Experiment [3] addresses T3, human Kv1.3 voltage-gated K+ channel (Homo sapiens, UniProt P22001).
T3 construct: host or cells: CHO-DUKX
Put plainly: cell-based. As to conditions: inhibition of thallium flux, CHO-DUKX cells with human Kv1.3; read-out: IC50.

Experiment [4] deals with Rat whole blood (Rattus norvegicus, UniProt P15384).
Experiment [5] concerns Human peripheral blood mononuclear cells (PBMCs). Put plainly: IL-2 release from anti-CD3 stimulated human PBMCs (Example 4b). It counts as cell-based. Conditions: geometric mean, at least 6 replicates, read-out: anti-CD3 PBMC/IL-2 IC50. On the procedure:
Human peripheral blood mononuclear cells (PBMCs) were used to assess the effects of Kv1.3 blockers on T-cell activation as determined by IL-2 release after stimulation with anti-CD3.
Human PBMCs were obtained from Precision for Medicine (Frederick, Md.). Cells from 5 donors were used. Plate-bound anti-CD3 was used to stimulate bulk T cells in the PBMC preparations. Briefly, 96-well plates were coated with anti-CD3 antibody for app. 16 hours at 5° C., using 50 μl of a 1 μg/ml anti-CD3 solution diluted in PBS. Thereafter the plates were washed twice.
Kv1.3 blockers were subsequently diluted in medium (RPMI 1640 with Glutamax-I containing, 10% v/v Fetal Bovine Serum, 1% v/v penicillin-streptomycin Solution) and added in a volume of 50 μl. The compounds indicated in Table 4b were used at concentrations ranging from […] to 1000 nM (half log dilutions, starting concentrations varying).
Finally, 50.000 PBMCs in the same medium were added to each well in a volume of 50 μl, giving a final volume of 100 μl per well. The plates were incubated for 20-24 hours in a 37° C./5% CO2 incubator. After centrifugation of the plates, 25 μl supernatant was transferred to IL-2 detection plates (MSD Human IL-2 Tissue Culture Kit, cat #K151AHB-2) and IL-2 was measures as described by the manufacturer (Meso Scale Discovery, Rockville, Md., USA).
Results are shown in Table 4b as geometric mean of IC50 values obtained from anti-CD3 stimulated human PBMC assays. All values derive from at least 6 replicates.

The target in experiment [6] is T4, Kv1.1 (Homo sapiens, UniProt Q09470).
T4 construct: expressed in transfected cells; host or cells: Chinese Hamster Ovary (CHO)
The experiment is described as follows: cell-based. Conditions: for IC50: CHO cells, whole-cell patch clamp, read-out: Potency IC50 (nM) Kv1.1; for Selectivity Kv1.1/Kv1.3: ratio IC50[Kv1.1]/IC50[Kv1.3].

For experiment [7], the target named is T5, Kv1.2 (Homo sapiens, UniProt P16389).
T5 construct: expressed in transfected cells; host or cells: Chinese Hamster Ovary (CHO)
The experiment is described as follows: cell-based. Conditions: for IC50: CHO cells, whole-cell patch clamp, read-out: Potency IC50 (nM) Kv1.2.

For experiment [8], the system named is Human peripheral blood mononuclear cells (PBMCs). The experiment is described as follows: IL-2 release from anti-CD3 stimulated human PBMCs (Example 4a). In kind it is cell-based. As to conditions: geometric mean, at least 4 replicates, read-out: anti-CD3 PBMC/IL-2 IC50. On the procedure: Human peripheral blood mononuclear cells (PBMCs) were used to assess the effects of Kv1.3 blockers on T-cell activation as determined by IL-2 (cytokine) release after stimulation with anti-CD3.
Human PBMCs were obtained from Precision for Medicine (Frederick, Md.). Cells from 5 donors were used. Plate-bound anti-CD3 was used to stimulate bulk T cells in the PBMC preparations. Briefly, 96-well plates were coated with anti-CD3 antibody for 2 hrs at 37° C., using 50 μL of a 0.5 μg/mL anti-CD3 solution diluted in 1×PBS. Thereafter the plates were washed twice.
Finally, 1×10^5 PBMCs were added to each well in a volume of 100 μL, giving a final volume of 200 μL per well. The plates were incubated for 20-24 hours in a 37° C./5% CO2 incubator. After centrifugation of the plates, 25 μl supernatant was transferred to IL-2 detection plates (MSD Human IL-2 Tissue Culture Kit, cat #K151AHB-2) and IL-2 was measures as described by the manufacturer (Meso Scale Discovery, Rockville, Md., USA).
Results are shown in Table 4a as geometric mean of IC50 values obtained from anti-CD3 stimulated human PBMC assays. All values derive from at least 4 replicates.

pIC50: −log10 of the molar value. Bridge positions count the residues as written; N and C are the ends. Square brackets hold non-standard residues; d marks the D form. Peptide text beside a SMILES is read from it. Nle = CCCC[C@H](N)C(=O)O

T3 sequence (P22001 whole entry): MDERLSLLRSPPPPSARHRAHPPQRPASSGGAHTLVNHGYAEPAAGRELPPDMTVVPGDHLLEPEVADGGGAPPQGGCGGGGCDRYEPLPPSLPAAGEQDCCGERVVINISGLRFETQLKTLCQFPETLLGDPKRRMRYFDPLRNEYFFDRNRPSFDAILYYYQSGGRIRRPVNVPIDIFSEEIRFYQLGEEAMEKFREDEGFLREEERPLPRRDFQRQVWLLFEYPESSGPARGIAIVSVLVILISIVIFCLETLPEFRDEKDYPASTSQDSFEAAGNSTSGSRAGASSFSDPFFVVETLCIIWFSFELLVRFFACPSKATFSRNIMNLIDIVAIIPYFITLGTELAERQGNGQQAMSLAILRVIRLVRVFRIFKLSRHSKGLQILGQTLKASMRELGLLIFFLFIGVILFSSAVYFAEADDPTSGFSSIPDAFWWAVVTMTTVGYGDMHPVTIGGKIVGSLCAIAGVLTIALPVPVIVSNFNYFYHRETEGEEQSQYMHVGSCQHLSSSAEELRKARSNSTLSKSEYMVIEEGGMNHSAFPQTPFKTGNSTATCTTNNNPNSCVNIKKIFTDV
T1 sequence (P22001 whole entry): as above
T5 sequence (P16389 whole entry): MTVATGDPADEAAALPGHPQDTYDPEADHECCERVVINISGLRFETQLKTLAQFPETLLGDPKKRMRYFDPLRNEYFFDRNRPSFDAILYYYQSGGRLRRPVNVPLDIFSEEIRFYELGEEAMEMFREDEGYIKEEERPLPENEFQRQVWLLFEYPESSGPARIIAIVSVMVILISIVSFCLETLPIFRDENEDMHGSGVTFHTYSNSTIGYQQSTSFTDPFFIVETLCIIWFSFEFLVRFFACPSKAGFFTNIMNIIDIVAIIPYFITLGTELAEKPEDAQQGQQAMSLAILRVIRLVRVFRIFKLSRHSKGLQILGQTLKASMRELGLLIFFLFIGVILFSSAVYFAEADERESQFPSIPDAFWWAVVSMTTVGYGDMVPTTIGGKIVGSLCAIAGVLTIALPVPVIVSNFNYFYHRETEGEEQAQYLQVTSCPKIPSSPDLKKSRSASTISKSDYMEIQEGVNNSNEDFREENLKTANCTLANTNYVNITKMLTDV
T2 sequence (P17658 whole entry): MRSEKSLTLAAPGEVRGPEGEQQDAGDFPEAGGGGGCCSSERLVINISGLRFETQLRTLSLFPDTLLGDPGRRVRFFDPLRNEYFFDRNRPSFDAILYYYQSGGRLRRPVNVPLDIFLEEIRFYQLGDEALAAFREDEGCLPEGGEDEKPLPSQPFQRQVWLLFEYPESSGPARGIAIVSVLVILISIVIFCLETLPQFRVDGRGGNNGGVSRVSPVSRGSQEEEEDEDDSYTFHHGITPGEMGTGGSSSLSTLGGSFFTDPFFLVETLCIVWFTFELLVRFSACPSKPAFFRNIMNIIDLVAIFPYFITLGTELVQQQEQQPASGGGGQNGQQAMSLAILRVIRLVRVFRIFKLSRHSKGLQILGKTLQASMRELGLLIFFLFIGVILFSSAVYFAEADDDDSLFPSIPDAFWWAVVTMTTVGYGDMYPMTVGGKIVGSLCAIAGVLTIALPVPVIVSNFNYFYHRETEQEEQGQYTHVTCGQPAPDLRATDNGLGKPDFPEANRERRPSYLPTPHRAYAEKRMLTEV
Sequence of Rat whole blood (P15384 whole entry): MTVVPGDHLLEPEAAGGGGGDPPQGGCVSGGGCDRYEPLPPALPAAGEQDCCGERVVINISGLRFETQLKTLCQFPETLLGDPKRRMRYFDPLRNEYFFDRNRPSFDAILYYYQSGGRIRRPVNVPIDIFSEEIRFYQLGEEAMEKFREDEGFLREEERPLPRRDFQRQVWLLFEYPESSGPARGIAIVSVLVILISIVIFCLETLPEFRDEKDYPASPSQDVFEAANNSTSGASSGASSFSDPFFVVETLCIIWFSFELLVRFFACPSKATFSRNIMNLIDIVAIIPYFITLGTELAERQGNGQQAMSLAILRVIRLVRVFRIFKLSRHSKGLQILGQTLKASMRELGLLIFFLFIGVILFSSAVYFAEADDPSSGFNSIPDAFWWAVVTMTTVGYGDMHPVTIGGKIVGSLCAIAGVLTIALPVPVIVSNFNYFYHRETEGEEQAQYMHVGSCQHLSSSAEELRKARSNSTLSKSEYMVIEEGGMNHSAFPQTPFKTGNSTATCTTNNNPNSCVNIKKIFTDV
T4 sequence (Q09470 whole entry): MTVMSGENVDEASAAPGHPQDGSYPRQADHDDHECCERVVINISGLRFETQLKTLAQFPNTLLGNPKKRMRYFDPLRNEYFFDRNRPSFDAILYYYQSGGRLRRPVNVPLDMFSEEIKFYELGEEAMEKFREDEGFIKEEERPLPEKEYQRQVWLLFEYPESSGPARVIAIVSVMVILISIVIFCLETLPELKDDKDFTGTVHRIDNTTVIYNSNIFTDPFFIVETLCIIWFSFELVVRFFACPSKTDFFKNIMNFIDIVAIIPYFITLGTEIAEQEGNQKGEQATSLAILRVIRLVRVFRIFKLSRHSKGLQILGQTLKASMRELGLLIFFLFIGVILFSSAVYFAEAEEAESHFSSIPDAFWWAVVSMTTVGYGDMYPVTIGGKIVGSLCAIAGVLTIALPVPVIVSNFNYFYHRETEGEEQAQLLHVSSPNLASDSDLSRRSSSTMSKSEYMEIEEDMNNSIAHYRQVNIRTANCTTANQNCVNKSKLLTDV

As for `CCCC[C@@H]1NC(=O)[C@@H]2CSSC[C@H](NC(=O)[C@H](CCCNC(=N)N)NC(=O)[C@H](CCCC)NC(=O)[C@H](CC(=O)O)NC(=O)[C@H](CCCC)NC(=O)[C@@H](N)CC(N)=O)C(=O)N[C@@H](CO)C(=O)N[C@@H](C)C(=O)N[C@@H](CO)C(=O)N[C@@H](C(C)C)C(=O)N[C@@H](CCC(=O)O)C(=O)N[C@H]3CSSC[C@H](NC(=O)[C@H](CCCCN)NC(=O)[C@H](CCCCN)NC(=O)[C@H](CC(N)=O)NC1=O)C(=O)N[C@@H](CCCCN)C(=O)N[C@H](C(=O)N[C@@H](Cc1ccc(O)cc1)C(=O)N1CCC[C@H]1C(=O)N[C@@H](CCCNC(=N)N)C(N)=O)CSSC[C@H](NC(=O)[C@H](CO)NC(=O)[C@H](CCC(N)=O)NC(=O)[C@H](CCCCN)NC3=O)C(=O)N[C@@H](CC(C)C)C(=O)N[C@@H](CCCCN)C(=O)N[C@@H](C)C(=O)N[C@@H]([C@@H](C)CC)C(=O)NCC(=O)N[C@@H](CO)C(=O)N[C@@H]([C@@H](C)CC)C(=O)N[C@@H](Cc1ccccc1)C(=O)NCC(=O)N[C@@H](CCCCN)C(=O)N2` [Compound 48] (H-N[Nle]D[Nle]RCSASVECKQSCLKAIGSIFGKC[Nle]NKKCKCYPR-NH2; disulfide 6-27, 12-32, 16-34), the half-inhibitory concentration (IC50) is 0.37 nM in experiment [1], > 3000 nM in experiment [2], > 3000 nM in experiment [6] and > 3000 nM in experiment [7]. Further, in experiment [2], the “Selectivity Kv1.6/Kv1.3” value is >8200. In addition, the pIC50 was 9.85 in experiment [3], ≥ 9.00 in experiment [4] and 10.15 in experiment [5]. For the same compound, the “Selectivity Kv1.1/Kv1.3” value in experiment [6] is given as >8200. The “Selectivity Kv1.2/Kv1.3” value in experiment [7] (ratio IC50[Kv1.2]/IC50[Kv1.3]) is listed as >8200.
“H-NMDMRCSASVECKQKCLKAIGSIFGKCMNKKCKCYPRRRTA-NH2 (disulfide 6-27, 12-32, 16-34) [Compound 23]”: the half-inhibitory concentration (IC50) in experiment [1] amounted to 0.15 nM; in experiment [2] it was 215 nM; in experiment [6], 626 nM; in experiment [7], 28 nM. Further, the pIC50 in experiment [3] was 10.26; in experiment [4], ≥ 9.00; in experiment [5] it was 10.22.
With `CC[C@H](C)[C@@H]1NC(=O)[C@H](C)NC(=O)[C@H](CCCCN)NC(=O)[C@H](CC(C)C)NC(=O)[C@@H]2CSSC[C@@H](C(=O)N[C@@H](Cc3ccc(O)cc3)C(=O)N3CCC[C@H]3C(=O)N[C@@H](CCCNC(=N)N)C(=O)O)NC(=O)[C@H](CCCCN)NC(=O)[C@@H]3CSSC[C@H](NC(=O)[C@H](CCC(=O)O)NC(=O)[C@H](C(C)C)NC(=O)[C@H](CO)NC(=O)[C@H](C)NC(=O)[C@H](CO)NC(=O)[C@@H](NC(=O)[C@H](CCCNC(=N)N)NC(=O)[C@H](CCSC)NC(=O)[C@H](CC(=O)O)NC(=O)[C@H](CCSC)NC(=O)[C@@H](N)CCC(N)=O)CSSC[C@H](NC(=O)[C@H](CCCCN)NC(=O)CNC(=O)[C@H](Cc4ccccc4)NC(=O)[C@H]([C@@H](C)CC)NC(=O)[C@H](CO)NC(=O)CNC1=O)C(=O)N[C@@H](CCSC)C(=O)N[C@@H](CC(N)=O)C(=O)N[C@@H](CCCCN)C(=O)N[C@@H](CCCCN)C(=O)N3)C(=O)N[C@@H](CCCCN)C(=O)N[C@@H](CCC(N)=O)C(=O)N[C@@H](CCCCN)C(=O)N2` [Compound 1] (H-QMDMRCSASVECKQKCLKAIGSIFGKCMNKKCKCYPR-OH; disulfide 6-27, 12-32, 16-34), the IC50 is 0.38 nM in experiment [1], > 3000 nM in experiment [2], > 3000 nM in experiment [6] and 518 nM in experiment [7]. In addition, the “Selectivity Kv1.6/Kv1.3” value in experiment [2] was >7900. Also, the pIC50 in experiment [3] was 9.62; in experiment [4], ≥ 9.00; in experiment [5] it was 10.05. Further, the “Selectivity Kv1.1/Kv1.3” value in experiment [6] is reported as >7900.
For `CC[C@H](C)[C@@H]1NC(=O)[C@H](C)NC(=O)[C@H](CCCCN)NC(=O)[C@H](CC(C)C)NC(=O)[C@@H]2CSSC[C@@H](C(=O)N[C@@H](Cc3ccc(O)cc3)C(=O)N3CCC[C@H]3C(=O)N[C@@H](CCCNC(=N)N)C(N)=O)NC(=O)[C@H](CCCCN)NC(=O)[C@@H]3CSSC[C@H](NC(=O)[C@H](CCC(=O)O)NC(=O)[C@H](C(C)C)NC(=O)[C@H](CO)NC(=O)[C@H](C)NC(=O)[C@H](CO)NC(=O)[C@@H](NC(=O)[C@H](CCCNC(=N)N)NC(=O)[C@H](CCSC)NC(=O)[C@H](CC(=O)O)NC(=O)[C@H](CCSC)NC(=O)[C@@H](N)CC(N)=O)CSSC[C@H](NC(=O)[C@H](CCCCN)NC(=O)CNC(=O)[C@H](Cc4ccccc4)NC(=O)[C@H]([C@@H](C)CC)NC(=O)[C@H](CO)NC(=O)CNC1=O)C(=O)N[C@@H](CCSC)C(=O)N[C@@H](CC(N)=O)C(=O)N[C@@H](CCCCN)C(=O)N[C@@H](CCCCN)C(=O)N3)C(=O)N[C@@H](CCCCN)C(=O)N[C@@H](C(C)C)C(=O)N[C@@H](CCCCN)C(=O)N2` [Compound 17] (H-NMDMRCSASVECKVKCLKAIGSIFGKCMNKKCKCYPR-NH2; disulfide 6-27, 12-32, 16-34), the half-maximal inhibitory concentration (IC50) in experiment [1] is 0.42 nM; in experiment [2], 912 nM; in experiment [6], > 3000 nM; in experiment [7] it was 66 nM. In addition, the pIC50 is 9.40 in experiment [8], 9.85 in experiment [3] and ≥ 9.00 in experiment [4]. In addition, in experiment [6], the “Selectivity Kv1.1/Kv1.3” value is >7200.
With `CCCC[C@@H]1NC(=O)[C@@H]2CSSC[C@H](NC(=O)[C@H](CCCNC(=N)N)NC(=O)[C@H](CCSC)NC(=O)[C@H](CC(=O)O)NC(=O)[C@H](CCSC)NC(=O)[C@@H](N)CC(N)=O)C(=O)N[C@@H](CO)C(=O)N[C@@H](C)C(=O)N[C@@H](CO)C(=O)N[C@@H](C(C)C)C(=O)N[C@@H](CCC(=O)O)C(=O)N[C@H]3CSSC[C@H](NC(=O)[C@H](CCCCN)NC(=O)[C@H](CCCCN)NC(=O)[C@H](CC(N)=O)NC1=O)C(=O)N[C@@H](CCCCN)C(=O)N[C@H](C(=O)N[C@@H](Cc1ccc(O)cc1)C(=O)N1CCC[C@H]1C(=O)N[C@@H](CCCNC(=N)N)C(N)=O)CSSC[C@H](NC(=O)[C@H](CCCCN)NC(=O)[C@H](CCC(N)=O)NC(=O)[C@H](CCCCN)NC3=O)C(=O)N[C@@H](CC(C)C)C(=O)N[C@@H](CCCCN)C(=O)N[C@@H](C)C(=O)N[C@@H]([C@@H](C)CC)C(=O)NCC(=O)N[C@@H](CO)C(=O)N[C@@H]([C@@H](C)CC)C(=O)N[C@@H](Cc1ccccc1)C(=O)NCC(=O)N[C@@H](CCCCN)C(=O)N2` [Compound 16] (H-NMDMRCSASVECKQKCLKAIGSIFGKC[Nle]NKKCKCYPR-NH2; disulfide 6-27, 12-32, 16-34), the IC50 in experiment [1] is 0.24 nM; in experiment [2], 2460 nM; in experiment [6] it was > 3000 nM; in experiment [7], 133 nM. The results for the pIC50 in experiment [8] and in experiment [3] were 10.30 and 9.85, respectively. For the same compound, the “Selectivity Kv1.1/Kv1.3” value in experiment [6] was >12600.
